Data published in PMC3790966, “Honokiol: A non-adipogenic PPARγ agonist from nature^” (Biochimica et Biophysica Acta, 2013).

Assays:
[1] = target: T1, PPARβ/δ (Homo sapiens, UniProt Q03181); assay: LBD binding (data not shown), three to four-fold higher concentrations than for PPARγ
T1 construct: gene PPARD; LBD
T1 sequence (Q03181 171-441 limits assumed): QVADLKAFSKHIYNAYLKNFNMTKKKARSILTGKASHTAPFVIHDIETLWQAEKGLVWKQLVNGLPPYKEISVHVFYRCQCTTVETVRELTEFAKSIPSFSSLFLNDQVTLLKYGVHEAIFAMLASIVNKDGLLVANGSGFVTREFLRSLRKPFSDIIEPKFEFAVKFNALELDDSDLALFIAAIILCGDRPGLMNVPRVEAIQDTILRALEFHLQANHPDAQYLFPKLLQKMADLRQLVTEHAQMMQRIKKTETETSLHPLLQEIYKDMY

[2] = target: T2, PPARα (Homo sapiens, UniProt Q07869); assay: as above
T2 construct: gene PPARA; LBD
T2 sequence (Q07869 196-468 limits assumed): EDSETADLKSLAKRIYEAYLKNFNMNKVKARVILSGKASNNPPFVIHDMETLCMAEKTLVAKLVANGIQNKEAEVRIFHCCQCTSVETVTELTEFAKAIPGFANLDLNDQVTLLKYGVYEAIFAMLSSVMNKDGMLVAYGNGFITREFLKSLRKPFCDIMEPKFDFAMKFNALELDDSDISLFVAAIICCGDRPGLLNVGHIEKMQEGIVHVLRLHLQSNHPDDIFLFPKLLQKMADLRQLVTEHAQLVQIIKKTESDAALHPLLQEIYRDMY

[3] = target: T3, PPARγ (Homo sapiens, UniProt P37231); assay: LanthaScreen TR-FRET competitive binding assay with purified LBD; supported by luciferase transactivation (partial agonist, EC50 […])
T3 construct: gene PPARG
T3 sequence (P37231 231-505 limits assumed): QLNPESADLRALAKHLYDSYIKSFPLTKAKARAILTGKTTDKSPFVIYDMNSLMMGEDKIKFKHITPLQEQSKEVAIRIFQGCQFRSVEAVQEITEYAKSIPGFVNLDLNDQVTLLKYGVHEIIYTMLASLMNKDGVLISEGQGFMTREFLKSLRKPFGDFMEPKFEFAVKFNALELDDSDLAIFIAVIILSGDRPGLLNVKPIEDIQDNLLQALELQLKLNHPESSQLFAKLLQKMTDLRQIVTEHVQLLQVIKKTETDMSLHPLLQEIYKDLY

SMILES: C=CCc1ccc(O)c(-c2ccc(O)c(CC=C)c2)c1 [honokiol]
- LBD binding (data not shown), three to four-fold higher concentrations than for [1]: Honokiol also bound to the LBDs of PPARα and PPARβ/δ but only at considerably (three to four-fold) higher concentrations
- LBD binding (data not shown), three to four-fold higher concentrations than for [2]: Honokiol also bound to the LBDs of PPARα and PPARβ/δ but only at considerably (three to four-fold) higher concentrations
- Ki [3]: 22.9 µM
